Laboratory results reported in ChEMBL document CHEMBL6078675, “Discovery of Ureido-Containing Alteropeptilides and Intramolecular Cyclized Alteramides in Pseudoalteromonas flavipulchra S16 by Promoter Engineering of Cryptic Biosynthetic Gene Clusters” (J Nat Prod, 2024).
Calls of active or inactive are those of the source. The calls are words filed in the database; no cut-off is given here. Numbered stars: 1 amine (or outer) side, 2 acyl side, 3 side chain; on linkers, the order of the positions; unused ones are H or OH. Peptide text beside a SMILES is read from it. Trp(6-Br) = N[C@@H](Cc1c[nH]c2cc(Br)ccc12)C(=O)O; CO = O=C([*:1])[*:2]

Assays:
Staphylococcus aureus = experiment: Antibacterial activity against Staphylococcus aureus ATCC 29213 at 1 mM at 20 uM incubated for 16 hrs by disk diffusion method; format: functional, organism-based
Bacillus subtilis = experiment: Antibacterial activity against Bacillus subtilis ATCC 6633 at 1 mM at 20 uM incubated for 16 hrs by disk diffusion method; format: functional, organism-based
Escherichia coli = experiment: Antibacterial activity against Escherichia coli CGMCC 44102 at 1 mM at 20 uM incubated for 16 hrs by disk diffusion method; format: functional, organism-based
A549 = experiment: Cytotoxicity against human A549 cells assessed as inhibition of cell proliferation at 20 uM incubated for 24 hrs by CCK8 assay; format: functional, cell-based
MCF7 = experiment: Cytotoxicity against human MCF7 cells assessed as inhibition of cell proliferation at 20 uM incubated for 24 hrs by CCK8 assay; format: functional, cell-based
MKN-45 = experiment: Cytotoxicity against human MKN-45 cells assessed as inhibition of cell proliferation at 20 uM incubated for 24 hrs by CCK8 assay; format: functional, cell-based
HCT-116 = experiment: Cytotoxicity against human HCT-116 cells assessed as inhibition of cell proliferation at 20 uM incubated for 24 hrs by CCK8 assay; format: functional, cell-based
HeLa = experiment: Cytotoxicity against human HeLa cells assessed as inhibition of cell proliferation at 20 uM incubated for 24 hrs by CCK8 assay; format: functional, cell-based
K562 = experiment: Cytotoxicity against human K562 cells assessed as inhibition of cell proliferation at 20 uM incubated for 24 hrs by CCK8 assay; format: functional, cell-based
786-0 = experiment: Cytotoxicity against human 786-0 cells assessed as inhibition of cell proliferation at 20 uM incubated for 24 hrs by CCK8 assay; format: functional, cell-based
TE-1 = experiment: Cytotoxicity against human TE-1 cells assessed as inhibition of cell proliferation at 20 uM incubated for 24 hrs by CCK8 assay; format: functional, cell-based
5637 = experiment: Cytotoxicity against human 5637 cells assessed as inhibition of cell proliferation at 20 uM incubated for 24 hrs by CCK8 assay; format: functional, cell-based
GBC-SD = experiment: Cytotoxicity against human GBC-SD cells assessed as inhibition of cell proliferation at 20 uM incubated for 24 hrs by CCK8 assay; format: functional, cell-based
HepG2 = experiment: Cytotoxicity against human HepG2 cells assessed as inhibition of cell proliferation at 20 uM incubated for 24 hrs by CCK8 assay; format: functional, cell-based
SF-126 = experiment: Cytotoxicity against human SF-126 cells assessed as inhibition of cell proliferation at 20 uM incubated for 24 hrs by CCK8 assay; format: functional, cell-based
DU-145 = experiment: Cytotoxicity against human DU-145 cells assessed as inhibition of cell proliferation at 20 uM incubated for 24 hrs by CCK8 assay; format: functional, cell-based
CAL-62 = experiment: Cytotoxicity against human CAL-62 cells assessed as inhibition of cell proliferation at 20 uM incubated for 24 hrs by CCK8 assay; format: functional, cell-based
PaTu 8988t = experiment: Cytotoxicity against human PaTu 8988t cells assessed as inhibition of cell proliferation at 20 uM incubated for 24 hrs by CCK8 assay; format: functional, cell-based
HOS = experiment: Cytotoxicity against human HOS cells assessed as inhibition of cell proliferation at 20 uM incubated for 24 hrs by CCK8 assay; format: functional, cell-based
A-375 = experiment: Cytotoxicity against human A-375 cells assessed as inhibition of cell proliferation at 20 uM incubated for 24 hrs by CCK8 assay; format: functional, cell-based
A673 = experiment: Cytotoxicity against human A673 cells assessed as inhibition of cell proliferation at 20 uM incubated for 24 hrs by CCK8 assay; format: functional, cell-based
RAW264.7 [1] = experiment: Cytotoxicity against mouse RAW264.7 cells assessed as inhibition of cell proliferation at 20 uM incubated for 24 hrs by CCK8 assay; format: functional, cell-based
L02 = experiment: Cytotoxicity against human L02 cells assessed as inhibition of cell proliferation at 20 uM incubated for 24 hrs by CCK8 assay; format: toxicity, cell-based; conditions: l02, 24 h
RAW264.7 [2] = experiment: Anti-inflammatory activity against mouse RAW264.7 cells at 20 uM pretreated for 30 mins followed by LPS treatment for 24 hrs by Griess assay; format: functional, cell-based; conditions: time 24.5 hrs

Row | SMILES | Activity (Staphylococcus aureus) | Activity (Bacillus subtilis) | Activity (Escherichia coli) | Activity (A549) | Activity (MCF7) | Activity (MKN-45) | Activity (HCT-116) | Activity (HeLa) | Activity (K562) | Activity (786-0) | Activity (TE-1) | Activity 5637 | Activity (GBC-SD) | Activity (HepG2) | Activity (SF-126) | Activity (DU-145) | Activity (CAL-62) | Activity (PaTu 8988t) | Activity (HOS) | Activity (A-375) | further results
1 | COC(=O)[C@@H](NC(=O)[C@H](Cc1c[nH]c2ccccc12)NC(=O)[C@H](Cc1c[nH]c2ccccc12)NC(=O)[C@@H](NC(=O)N[C@@H](Cc1c[nH]c2cc(Br)ccc12)C(=O)O)[C@@H](C)O)C(C)C ({Trp(6-Br)-CO}-TWWV-OMe) | inactive | inactive | inactive | inactive | inactive | inactive | inactive | inactive | inactive | inactive | inactive | inactive | inactive | inactive | inactive | inactive | inactive | inactive | inactive | inactive | Activity (A673): inactive; Activity (RAW264.7 [1]): inactive; Activity (L02): Non-toxic; Activity (RAW264.7 [2]): inactive
2 | COC(=O)[C@@H](NC(=O)[C@H](Cc1c[nH]c2ccccc12)NC(=O)[C@H](Cc1c[nH]c2ccccc12)NC(=O)[C@@H](NC(=O)N[C@@H](Cc1c[nH]c2ccccc12)C(=O)O)[C@@H](C)O)C(C)C ({Trp-CO}-TWWV-OMe) | inactive | inactive | inactive | inactive | inactive | inactive | inactive | inactive | inactive | inactive | inactive | inactive | inactive | inactive | inactive | inactive | inactive | inactive | inactive | inactive | Activity (A673): inactive; Activity (RAW264.7 [1]): inactive; Activity (L02): Non-toxic; Activity (RAW264.7 [2]): inactive
